Results taken from patent publication USRE38257E1, “Piperdine derivatives and hypotensives containing the same” (Ajinomoto Co., Inc., priority 1988, dated 2003).
Counter-ions that a name gives are not always drawn.

Tested on: male spontaneously hypertensive rats
Assay: Decrease in systolic blood pressure in spontaneously hypertensive rats after intravenous bolus injection, indirect (tail-cuff) method
Format: in vivo, rat
Conditions: for Decrease in systolic blood pressure (mmHg) time after administration (hour) 0.5: 0.5 hour after administration; for Decrease in systolic blood pressure (mmHg) time after administration (hour) 4: 4 hours after administration
Experimental: As test animals, four male spontaneously hypertensive rats (weight 400 to 440 g) that were sufficiently adapted for feeding and in which hypertension was confirmed were used.
Physiological saline aqueous solution containing 2.5% Nicolle and 2.5% ethanol of sample was intravenously administered by bolus injection at a dose of 1 ml per 1 kg of body weight. Systolic blood pressure after administration was measured by the indirect (tail-cuff) method.

Compound | Decrease in systolic blood pressure (mmHg) time after administration (hour) 0.5 (dose 10 mg/kg i.v. bolus) | Decrease in systolic blood pressure (mmHg) time after administration (hour) 4 (dose 10 mg/kg i.v. bolus) | also measured
4-(4-(5H-Dibenzo[a,d]cyclohepten-5-ylidene)-1-piperidinyl)-4′-trimethoxybutyrophenone hydrochloride [Example 172] | −115 mmHg | −25 mmHg | 
CC(=O)NC1CCC(CCCCN2CCC(=C3c4ccccc4C=Cc4ccccc43)CC2)CC1.Cl (stereo not drawn) [Example 260, 1-(4-acetylamino-1-cyclohexyl)-4-(4-(5H-dibenzo[a,d]cyclohepten-5-ylidene)-1-piperidinyl)butane hydrochloride] | −51 mmHg | −10 mmHg | 
CCC(CCN1CCC(=C2c3ccccc3C=Cc3ccccc32)CC1)C(=O)c1ccc(OC)c(OC)c1.Cl (stereo not drawn) [Example 278, 4-(4-(5H-dibenzo[a,d]cyclohepten-5-ylidene)-1-piperidinyl)-2-ethyl-3′,4′-dimethoxybutyrophenone hydrochloride] | −64 mmHg | 2 mmHg | 
C1=Cc2ccccc2C(=C2CCN(CCCCN3CCCCC3)CC2)c2ccccc21 [Example 209, 1-(4-(4-(5H-Dibenzo[a,d]cyclohepten-5-ylidene)-1-piperidinyl)butyl)piperidine dihydroxybutane hydrochloride] | −49 mmHg | −13 mmHg | 
Cl.c1ccc2c(c1)CCc1ccccc1C2=C1CCN(CCCCC2CCCCC2)CC1 [Example 186] | −95 mmHg | −12 mmHg | 
Cl.O=C(CCCN1CCC(=C2c3ccccc3C=Cc3ccccc32)CC1)N1CCc2ccccc2C1 [Example 204, N-(4-(4-(5H-Dibenzo[a,d]cyclohepten-5-ylidene)-1-piperidinyl)butanoyl)-1,2,3,4-tetrahydroisoquinoline hydrochloride] | −141 mmHg | −84 mmHg | 
CCOC(=O)C(CCN1CCC(=C2c3ccccc3C=Cc3ccccc32)CC1)CC1CCCCC1.Cl (stereo not drawn) [Example 259, Ethyl 2-cyclohexylmethyl-4-(4-(5H-dibenzo[a,d]cyclohepten-5-ylidene)-1-piperidinyl)butyrate hydrochloride] | −46 mmHg | −5 mmHg | 
Cl.OC1CCCC(CCCCN2CCC(=C3c4ccccc4C=Cc4ccccc43)CC2)C1 (stereo not drawn) [Example 300, 1-(1-(3-Hydroxyoxy)cyclohexyl)-4-(4-(5H-dibenzo[a,d]cyclohepten-5-ylidene)-1-piperidinyl)butane hydrochloride] | −97 mmHg | −22 mmHg | 
Cc1ccc(CN2CCC(=C3c4ccccc4C=Cc4ccccc43)CC2)cc1.Cl [Example 133, 4-(5H-Dibenzo[a,d]cyclohepten-5-ylidene)-1-(4-methylbenyl)piperidine hydrochloride] |  |  | Decrease in systolic blood pressure (mmHg) time after administration (hour) 0.5 (dose 3 mg/kg i.v. bolus): −146 mmHg; Decrease in systolic blood pressure (mmHg) time after administration (hour) 4 (dose 3 mg/kg i.v. bolus): −84 mmHg
COc1cc(C=CCN2CCC(=C3c4ccccc4C=Cc4ccccc43)CC2)ccc1O.Cl [Example 365, 4-(5H-Dibenzo[a,d]cyclohepten-5-ylidene)-1-(4-hydroxy-3-methoxycinnamyl)piperidine hydrochloridine] |  |  | Decrease in systolic blood pressure (mmHg) time after administration (hour) 0.5 (dose 3 mg/kg i.v. bolus): −80 mmHg; Decrease in systolic blood pressure (mmHg) time after administration (hour) 4 (dose 3 mg/kg i.v. bolus): −56 mmHg
CC(=O)N1CCC(C=CCCCN2CCC(=C3c4ccccc4C=Cc4ccccc43)CC2)CC1.Cl.Cl [Example 321, 1-(N-Acetyl-4-piperidinyl)-5-(4-(5H-dibenzo[a,d]cyclohepten-5-ylidene)-1-piperidinyl)-1-pentene dihydrochloride] | −60 mmHg | −4 mmHg | 
CCOC(=O)C1(CCCCN2CCC(=C3c4ccccc4C=Cc4ccccc43)CC2)CCCCC1.Cl [Example 269, 1-(4-(4-(5H-Dibenzo[a,d]cyclohepten-5-ylidene)-1-piperidinyl)-1-butyl)-1-ethoxycarbonxylcyclohexane hydrochloride] | 143 mmHg | −71 mmHg | 
Cl.NS(=O)(=O)c1ccc(C=CCN2CCC(=C3c4ccccc4C=Cc4ccccc43)CC2)cc1 [Example 386, 1-(4-Aminosulfonylcinnamyl)-4-(5H-Dibenzo[a,d]cyclohepten-5-ylidene)piperidine hydrochloride] | −83 mmHg | −96 mmHg | 
Cl.O=[N+]([O-])c1ccc(C=CCN2CCC(=C3c4ccccc4C=Cc4ccccc43)CC2)cc1 [Example 325, (5H-Dibenzo[a,d]cyclohepten-5-ylidene)-1-(4-nitrocinnamyl)piperidine hydrochloride] | −115 mmHg | −100 mmHg | 
CCOC(=O)N1CCCC(CCCCN2CCC(=C3c4ccccc4C=Cc4ccccc43)CC2)C1.Cl (stereo not drawn) [Example 312, 4-(4-(5H-Dibenzo[a,d]cyclohepten-5-ylidene)-1-piperidinyl)-1-(N-ethoxycarbonyl-3-piperidinyl)butane hydrochloride] | −115 mmHg | −11 mmHg | 
Cl.O=C(Nc1ccc(C=CCN2CCC(=C3c4ccccc4C=Cc4ccccc43)CC2)cc1)C(F)(F)F [Example 380, 4-(5H-Dibenzo[a,d]cyclohepten-5-ylidene)-1-(4-trifluoroacetylaminocinnamyl)piperidine hydrochloride] |  |  | Decrease in systolic blood pressure (mmHg) time after administration (hour) 0.5 (dose 0.3 mg/kg i.v. bolus): −141 mmHg
COc1cc2c(cc1OC)CC(CCN1CCC(=C3c4ccccc4C=Cc4ccccc43)CC1)C2.Cl [Example 240] |  |  | Decrease in systolic blood pressure (mmHg) time after administration (hour) 0.5 (dose 3 mg/kg i.v. bolus): −118 mmHg; Decrease in systolic blood pressure (mmHg) time after administration (hour) 4 (dose 3 mg/kg i.v. bolus): −5 mmHg
CCOC(=O)C1CCN(C(=O)CCCN2CCC(=C3c4ccccc4C=Cc4ccccc43)CC2)CC1.Cl [Example 217, 1-(4-(4-(5H-Dibenzo[a,d]cyclohepten-5-ylidene)-1-piperidinyl)butanoyl)-4-ethoxyxarbonpiperidine hydrochloride] | −18 mmHg | −20 mmHg | 
C1=Cc2ccccc2C(=C2CCN(CCCCCc3ccccc3)CC2)c2ccccc21.Cl [Example 16, 5-(4-(5H-Dibenzo[a,d]cyclohepten-5-ylidene)-1-piperidinyl)-1-phenylpentane hydrochloride] | −114 mmHg | −30 mmHg | 
CC(=O)Nc1ccc(C=CCN2CCC(=C3c4ccccc4C=Cc4ccccc43)CC2)cc1.Cl.Cl [Example 232, 1-(4-Acetylaminocinnamyl)-4-(5H-dibenzo[a,d]cyclohepten-5-ylidene)piperidine dihydrochloride] |  |  | Decrease in systolic blood pressure (mmHg) time after administration (hour) 0.5 (dose 1 mg/kg i.v. bolus): −92 mmHg; Decrease in systolic blood pressure (mmHg) time after administration (hour) 4 (dose 1 mg/kg i.v. bolus): −85 mmHg
